Measured values reported in patent US9593112B2, “Substituted pyrazolylpyrazole derivative and use of same as herbicide” (KYOYU AGRI CO., LTD., priority 2013, dated 2017).

Key:
Echinochloa crus-galli = experiment: Paddy herbicidal activity test; format: in vivo; details: irrigated paddy pot, treated at 3.5 leaf stage of Echinochloa crus-galli, 30 days
Procedure: (§1) Rice paddy soil was filled into a 1/10000 are pot followed by the addition of suitable amounts of water and chemical fertilizer, kneading, seeding with Echinochloa crus-galli, Monochoria vaginalis and Scirpus juncoides and maintaining in an irrigated state at a water depth of 3 cm.
(§2) Wettable powder of Target Compound (I) shown in Table 1 prepared in compliance with the preparation examples were diluted with a suitable amount of water, rice plants in the 2.0 leaf stage were transplanted during 3.5 leaf stage of Echinochloa crus-galli, and treated by dropping in chemical in the prescribed amount per are using a pipette.
(§3) After treating for 30 days in a glass greenhouse at an average atmospheric temperature of 30° C., the herbicidal efficacy thereof was investigated.
(§4) Evaluation of herbicidal efficacy was carried out by comparing growth inhibition rate (%) with an untreated group, while evaluation of phytotoxicity was carried out by comparing growth inhibition rate (%) with the state of a complete eradication group, and were evaluated at 11 levels indicated below.

Monochoria vaginalis = experiment: Paddy herbicidal activity test; format: in vivo; details: irrigated paddy pot, 30 days
Procedure: as §1, §2, §3, §4

Scirpus juncoides = experiment: Paddy herbicidal activity test; format: in vivo; details: irrigated paddy pot, 30 days
Procedure: as §1, §2, §3, §4

Rice plants = experiment: Paddy herbicidal activity test, phytotoxicity to transplanted rice; format: in vivo; details: rice transplanted at 2.0 leaf stage, 30 days
Procedure: as §1, §2, §3, §4

Chenopodium album [1] = experiment: Farming soil treatment test; format: in vivo; details: soil surface spray prior to weed growth, 30 days
Procedure: (§5) Field soil was filled into a 1/6000 are pot followed by seeding with Digitaria ciliaris, Chenopodium album and Amaranthus retroflexus and covering with soil.
(§6) Wettable powder of Target Compound (I) shown in Table 1 prepared in compliance with the preparation examples were diluted with water to the prescribed amount of chemical and uniformly sprayed onto each soil surface layer using 10 liters of sprayed water per are prior to weed growth following seeding.
as §3
(§7) Evaluation of herbicidal efficacy was carried out in the same manner as the above-mentioned Test Example 1.

Digitaria ciliaris [2] = experiment: Farming soil treatment test; format: in vivo; details: soil surface spray prior to weed growth, 30 days
Procedure: as §5, §6, §3, §7

Amaranthus retroflexus [3] = experiment: Farming soil treatment test; format: in vivo; details: soil surface spray prior to weed growth, 30 days
Procedure: as §5, §6, §3, §7

Chenopodium album [4] = experiment: Weed foliar treatment test; format: in vivo; details: foliar spray, 3 weeks
Procedure: (§8) Soil was filled into a 1/6000 are pot followed by seeding with Digitaria ciliaris, Chenopodium album and Amaranthus retroflexus, covering with soil, and cultivating in a glass greenhouse at an average atmospheric temperature of 25° C.
(§9) Wettable powder of Target Compound (I) shown in Table 1 prepared in compliance with the preparation examples were diluted with water to the prescribed amount of chemical and uniformly sprayed onto the weeds using 15 liters of sprayed water per are when Digitaria ciliaris had grown to the 1.0 to 2.0 leaf stage.
(§10) After treating for 3 weeks in a glass greenhouse at an average atmospheric temperature of 25° C., the herbicidal efficacy thereof was investigated.
as §7

Digitaria ciliaris [5] = experiment: Weed foliar treatment test; format: in vivo; details: foliar spray at 1.0 to 2.0 leaf stage of Digitaria ciliaris, 3 weeks
Procedure: as §8, §9, §10, §7

Amaranthus retroflexus [6] = experiment: Weed foliar treatment test; format: in vivo; details: foliar spray, 3 weeks
Procedure: as §8, §9, §10, §7

| Compound | herbicidal efficacy (growth inhibition level) Echinochloa crus-galli (Echinochloa crus-galli; 1 g a.i./10 a) | herbicidal efficacy (growth inhibition level) Echinochloa crus-galli (Echinochloa crus-galli; 5 g a.i./10 a) | herbicidal efficacy (growth inhibition level) Monochoria vaginalis (Monochoria vaginalis; 1 g a.i./10 a) | herbicidal efficacy (growth inhibition level) Monochoria vaginalis (Monochoria vaginalis; 5 g a.i./10 a) | herbicidal efficacy (growth inhibition level) Scirpus juncoides (Scirpus juncoides; 1 g a.i./10 a) | herbicidal efficacy (growth inhibition level) Scirpus juncoides (Scirpus juncoides; 5 g a.i./10 a) | phytotoxicity (growth inhibition level) Rice plants (Rice plants; 1 g a.i./10 a) | phytotoxicity (growth inhibition level) Rice plants (Rice plants; 5 g a.i./10 a) | herbicidal efficacy (growth inhibition level) Chenopodium album (Chenopodium album [1]; 5 g a.i./10 a) | herbicidal efficacy (growth inhibition level) Chenopodium album (Chenopodium album [1]; 10 g a.i./10 a) | herbicidal efficacy (growth inhibition level) Digitaria ciliaris (Digitaria ciliaris [2]; 5 g a.i./10 a) | herbicidal efficacy (growth inhibition level) Digitaria ciliaris (Digitaria ciliaris [2]; 10 g a.i./10 a) | herbicidal efficacy (growth inhibition level) Amaranthus retroflexus (Amaranthus retroflexus [3]; 5 g a.i./10 a) | herbicidal efficacy (growth inhibition level) Amaranthus retroflexus (Amaranthus retroflexus [3]; 10 g a.i./10 a) | herbicidal efficacy (growth inhibition level) Chenopodium album (Chenopodium album [4]; 5 g a.i./10 a) | herbicidal efficacy (growth inhibition level) Chenopodium album (Chenopodium album [4]; 10 g a.i./10 a) | herbicidal efficacy (growth inhibition level) Digitaria ciliaris (Digitaria ciliaris [5]; 5 g a.i./10 a) | herbicidal efficacy (growth inhibition level) Digitaria ciliaris (Digitaria ciliaris [5]; 10 g a.i./10 a) | herbicidal efficacy (growth inhibition level) Amaranthus retroflexus (Amaranthus retroflexus [6]; 5 g a.i./10 a) | herbicidal efficacy (growth inhibition level) Amaranthus retroflexus (Amaranthus retroflexus [6]; 10 g a.i./10 a) | other results |
| --- | --- | --- | --- | --- | --- | --- | --- | --- | --- | --- | --- | --- | --- | --- | --- | --- | --- | --- | --- | --- | --- |
| C#CCN(C)c1c(C#N)cnn1-c1nn2c(c1Cl)CCCC2 [Compound 4.73, 1-(3-chloro-4,5,6,7-tetrahydropyrazolo[1,5-a]pyridin-2-yl)-5-[methyl(prop-2-ynyl)amino]pyrazole-4-carbonitrile] | 2 (2: 20% to less than 30%) | 4 (4: 40% to less than 50%) | 3 (3: 30% to less than 40%) | 4 (4: 40% to less than 50%) | 0 (0 (exponent): 0% to less than 10% (growth inhibition rate)) | 1 (1: 10% to less than 20%) | 0 (0 (exponent): 0% to less than 10% (growth inhibition rate)) | 1 (1: 10% to less than 20%) | 1 (1: 10% to less than 20%) | 2 (2: 20% to less than 30%) | 0 (0 (exponent): 0% to less than 10% (growth inhibition rate)) | 1 (1: 10% to less than 20%) | 1 (1: 10% to less than 20%) | 2 (2: 20% to less than 30%) | 2 (2: 20% to less than 30%) | 3 (3: 30% to less than 40%) | 1 (1: 10% to less than 20%) | 2 (2: 20% to less than 30%) | 3 (3: 30% to less than 40%) | 3 (3: 30% to less than 40%) |  |
| CC#CCNc1c(C#N)cnn1-c1nn2c(c1Cl)CCCC2 [4.131, 4.132] | 3 (3: 30% to less than 40%) | 4 (4: 40% to less than 50%) | 0 (0 (exponent): 0% to less than 10% (growth inhibition rate)) | 1 (1: 10% to less than 20%) | 1 (1: 10% to less than 20%) | 3 (3: 30% to less than 40%) | 1 (1: 10% to less than 20%) | 1 (1: 10% to less than 20%) | 3 (3: 30% to less than 40%) | 4 (4: 40% to less than 50%) | 3 (3: 30% to less than 40%) | 4 (4: 40% to less than 50%) | 4 (4: 40% to less than 50%) | 5 (5: 50% to less than 60%) | 4 (4: 40% to less than 50%) | 5 (5: 50% to less than 60%) | 3 (3: 30% to less than 40%) | 4 (4: 40% to less than 50%) | 4 (4: 40% to less than 50%) | 6 (6: 60% to less than 70%) |  |
| C#CCNc1c(C#N)cnn1-c1nn2c(c1Cl)CCCC2 [4.85, 4.156] | 2 (2: 20% to less than 30%) | 3 (3: 30% to less than 40%) | 1 (1: 10% to less than 20%) | 3 (3: 30% to less than 40%) | 0 (0 (exponent): 0% to less than 10% (growth inhibition rate)) | 1 (1: 10% to less than 20%) | 2 (2: 20% to less than 30%) | 2 (2: 20% to less than 30%) | 4 (4: 40% to less than 50%) | 5 (5: 50% to less than 60%) | 3 (3: 30% to less than 40%) | 4 (4: 40% to less than 50%) | 3 (3: 30% to less than 40%) | 6 (6: 60% to less than 70%) | 5 (5: 50% to less than 60%) | 6 (6: 60% to less than 70%) | 3 (3: 30% to less than 40%) | 5 (5: 50% to less than 60%) | 4 (4: 40% to less than 50%) | 6 (6: 60% to less than 70%) |  |
| C#CCCNc1c(C#N)cnn1-c1nn2c(c1Cl)CCCC2 [Compound 1, 1-(3-chloro-4,5,6,7-tetrahydropyrazolo[1,5-a]pyridin-2-yl)-5-(but-3-ynylamino)pyrazole-4-carbonitrile] | 9 (9: 90% to less than 100%) | 10 (10: 100%) | 9 (9: 90% to less than 100%) | 10 (10: 100%) | 8 (8: 80% to less than 90%) | 10 (10: 100%) | 0 (0 (exponent): 0% to less than 10% (growth inhibition rate)) | 1 (1: 10% to less than 20%) | 10 (10: 100%) | 10 (10: 100%) | 10 (10: 100%) | 10 (10: 100%) | 10 (10: 100%) | 10 (10: 100%) | 10 (10: 100%) | 10 (10: 100%) | 10 (10: 100%) | 10 (10: 100%) | 10 (10: 100%) | 10 (10: 100%) | melting point: 130 to 131 °C |
